The first assay has as its system GUMC-403. The assay is described as follows: viability at highest tested concentration (max response) relative to DMSO (% of DMSO control); higher = less cytotoxic. The following applies: library / dose series: MIPE library, 11-point 1:3 dilution; top concentration 11.1 µM; 48 h. A digest of the protocol: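 Conditionally reprogrammed GUMC-403 papilloma cells from a patient were plated at 700/well in 5 μL F + Y medium in 1536-well plates and left overnight at 37 °C. A pin tool then added 23 nL of library compounds as an 11-point 1:3 series, for 48 h. CellTiter-Glo luminescence was read on a ViewLux and scaled with vehicle wells set to 100% and empty wells to 0%. Each value gives viability at the highest tested concentration relative to vehicle control.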
In turn, `CO[C@H]1/C=C/O[C@@]2(C)Oc3c(C)c(O)c4c(O)c(c(/C=N/N5CCN(C)CC5)c(O)c4c3C2=O)NC(=O)/C(C)=C\C=C\[C@H](C)[C@H](O)[C@@H](C)[C@@H](O)[C@@H](C)[C@H](OC(C)=O)[C@@H]1C` yielded a viability of 107.

Staying with this assay, now noted: library / dose series: MIPE library, 11-point 1:3 dilution; top concentration 23 µM; 48 h.
`Cn1c(CNc2ccc(C(=N)N)cc2)nc2cc(C(=O)N(CCC(=O)O)c3ccccn3)ccc21`: the viability was 134.

Staying with this assay, now noted: library / dose series: MIPE library, 11-point 1:3 dilution; top concentration 46.1 µM; 48 h.
Regarding `Cn1cc(-c2ccc3nnc(Sc4ccc5ncccc5c4)n3n2)cn1`, the viability came to 108.

With `Cc1ccc(-c2ncn(-c3ccc(Nc4nccc(-c5cccc(N6CCOCC6)c5)n4)cc3)n2)cn1`, the viability was 32.

Turning to `COc1ccc2c(OCc3nnc4ccc(-c5ccccc5)nn34)ccnc2c1`, the viability was found to be 126.

Consider `COc1cc([C@@H]2c3cc4c(cc3[C@H](O)[C@H]3COC(=O)[C@@H]23)OCO4)cc(OC)c1OC`, for which the viability was determined as 99.5.

As for `CCOc1ccc(Nc2nc(-c3c(C)nc4ccccn34)cs2)cc1`, the viability is 101.

`O=[N+]([O-])c1cn2c(n1)OC[C@@H](OCc1ccc(OC(F)(F)F)cc1)C2` returned a viability of 111.

As to `COc1ccccc1N1CCN(CC(O)COc2cccc3ccccc23)CC1` (stereo unspecified), the viability was determined as 99.1.

The compound `CC(=O)O[C@@]12CO[C@@H]1C[C@H](O)[C@]3(C)[C@@H]2[C@H](OC(=O)C4=CC=CC=C4)[C@]5(O)C[C@H](OC(=O)C(O)[C@@H](NC(=O)OC(C)(C)C)C6=CC=CC=C6)C(=C(/[C@@H](O)C3=O)C5(C)C)/C` (stereo partly specified) showed a viability of 103.

In turn, `CN1CCN(CC1)C2=CC3=C([NH]C(=N3)C/4=C(\N)C5=C(F)C=CC=C5NC4=O)C=C2` showed a viability of 123.

On to `CCC(=O)OCC(=O)[C@@]1(OC(=O)CC)[C@@H](C)C[C@H]2[C@@H]3CCC4=CC(=O)C=C[C@]4(C)[C@@]3(F)[C@@H](O)C[C@@]21C`, for which the viability was 120.

In the case of `C=CCc1ccc(O)c(-c2ccc(O)c(CC=C)c2)c1`, the viability came to 80.6.

`Cc1cc(C(=O)N2CCN(c3cccc(Cl)c3)CC2)n(-c2ccccc2)n1` displayed a viability of 101.

In turn, `CC(C)(Sc1cc(C(C)(C)C)c(O)c(C(C)(C)C)c1)Sc1cc(C(C)(C)C)c(O)c(C(C)(C)C)c1` yielded a viability of 111.

As for `CCCCCCOC(=O)/N=C(/N)c1ccc(NCc2nc3cc(C(=O)N(CCC(=O)OCC)c4ccccn4)ccc3n2C)cc1`, the viability amounted to 115.

`NC(=O)N1c2ccccc2CC(=O)c2ccccc21` had a viability of 111.

In turn, `Nc1ncnc2c1ncn2[C@@H]1O[C@H](CO)[C@@H](O)[C@H]1O` yielded a viability of 132.

As to `O=C(O)/C=C/c1ccc(O)c(O)c1`, the viability is 120.

On to `Nc1cccc([S+](=O)([O-])N2CCCN([S+](=O)([O-])c3ccc4c(c3)OCCO4)CC2)c1`, for which the viability was determined as 87.

On to `COc1c(O)cc2c(c1O)[C@@H]1O[C@H](CO)[C@@H](O)[C@H](O)[C@H]1OC2=O`, for which the viability was 110.

Consider `N#C/N=C(\NCCCCCCOc1ccc(Cl)cc1)Nc1ccncc1`, for which the viability is 115.

Take `CC1=CC=C2N=C(NC(=O)CS\C3=N\C4=C(\SCC4)C(=O)N3C5=CC=CC=C5)SC2=C1`: the viability turned out to be 109.

Turning to `CCC(CCCC)COC(=O)C(\C#N)=C(\c1ccccc1)c2ccccc2` (stereo unspecified), the viability came to 113.

`Cc1ccc(-c2cc(C(F)(F)F)nn2-c2ccc([S+](N)(=O)[O-])cc2)cc1` showed a viability of 114.

As for `CC[C@H]1/C=C\C=C/C[C@@H](C)[C@H](O)[C@@](C)(O)C(=O)[C@@H](C)[C@H](O)[C@@H](C)C(=O)[C@@H](C)[C@H](O)[C@@H](C)/C=C/C(=O)O[C@@H]2[C@H](C)[C@H](CC1)O[C@]1(CC[C@H](C)[C@H](C[C@@H](C)O)O1)[C@H]2C`, the viability was found to be 146.

The compound `COc1cc(CNC(=O)CCCC/C=C/C(C)C)ccc1O` registered a viability of 128.

The compound `CC(=O)Nc1ccc(OC[C@](C)(O)C(=O)Nc2ccc([N+](=O)[O-])c(C(F)(F)F)c2)cc1` yielded a viability of 88.4.

Compound `COC1=C(CC=C(C)C)C2=C(\C=C/C(=O)O2)C=C1` yielded a viability of 92.

In turn, `CO[C@H]1C[C@@H]2CC[C@@H](C)[C@@](O)(O2)C(=O)C(=O)N2CCCC[C@H]2C(=O)O[C@H]([C@H](C)C[C@@H]2CC[C@@H](OC(=O)C(C)(CO)CO)[C@H](OC)C2)CC(=O)[C@H](C)/C=C(\C)[C@@H](O)[C@@H](OC)C(=O)[C@H](C)C[C@H](C)/C=C/C=C/C=C/1C` yielded a viability of 110.

Regarding `OC1=CC=C(C=C1)\C2=C\OC3=C(C=CC(=C3)O)C2=O`, the viability is 133.

For the compound `COC(=O)[C@@H]1CC2=CC(=O)CC[C@]2(C)[C@@]23O[C@@H]2C[C@@]2(C)[C@@H](CC[C@@]24CCC(=O)O4)[C@H]13`, the viability turned out to be 128.

`CCc1cccc2c3c([nH]c12)C(CC)(CC(=O)O)OCC3` (stereo unspecified): the viability was determined as 132.

Compound `O=[S+]([O-])(F)Cc1ccccc1` registered a viability of 84.1.

Turning to `CN(C)CCCN\C1=C\2C(=O)N(C)C(=O)\N=C2N(C)C3=C1C=CC=C3`, the viability was 107.

`CC(C)CC(N(C)C)C1(c2ccc(Cl)cc2)CCC1` (stereo unspecified) displayed a viability of 122.

`CC(C)NCC(O)c1ccc(O)c(O)c1` (stereo unspecified): the viability was found to be 127.

`CN(C)c1nc(Cc2ccc(NC(=O)c3ccc4ccccc4c3)cc2)nc(Cl)c1CC(=O)O` yielded a viability of 114.

In turn, `O=C(O)Cc1cccc(OCCCN(Cc2cccc(C(F)(F)F)c2Cl)CC(c2ccccc2)c2ccccc2)c1` showed a viability of 136.

`CN1CCN2c3ccccc3Cc3ccccc3C2C1` (stereo unspecified) yielded a viability of 106.

The compound `N=C(N)NC(=N)N1CCOCC1` displayed a viability of 132.

`NCC1CCC(C(=O)O)CC1` (stereo unspecified) registered a viability of 115.

`COC(=O)[C@@H](N)CCCNC(=N)N[N+](=O)[O-]` displayed a viability of 107.

For `CN1[C@@H]2CC(O)C[C@H]1[C@@H]1O[C@@H]12` (stereo partly specified), the viability was determined as 92.4.

In turn, `CC1(C)C(N(O)C(=O)Nc2ccc(Cl)cc2)N(c2ccc(Cl)cc2)C(=O)N1CC(=O)N/N=C/C=C/c1ccc([N+](=O)[O-])o1` (stereo unspecified) gave a viability of 85.4.

For `Cc1cn(-c2cc(NC(=O)c3ccc(C)c(Nc4nccc(-c5cccnc5)n4)c3)cc(C(F)(F)F)c2)cn1`, the viability amounted to 130.

Consider `NC(=O)N1CCC(CC(=O)N2CCC([C@H]3c4ncc(Br)cc4CCc4cc(Cl)cc(Br)c43)CC2)CC1`, for which the viability came out at 101.

In turn, `CCN(CC)CCCC(C)Nc1ccnc2cc(Cl)ccc12` (stereo unspecified) yielded a viability of 103.

For the compound `FC(F)(F)c1ccc(Nc2nc3cc(Oc4ccnc(-c5ncc(C(F)(F)F)[nH]5)c4)ccc3[nH]2)cc1`, the viability is 97.7.

Consider `COCCCOc1cc(C[C@@H](C[C@H](N)[C@@H](O)C[C@H](C(=O)NCC(C)(C)C(N)=O)C(C)C)C(C)C)ccc1OC`, for which the viability came out at 130.

With `Cn1c(=O)c2c(ncn2C)n(C)c1=O.O=C(O)CC(O)(CC(=O)O)C(=O)O`, the viability stood at 98.9.

Consider `Cc1c(CCOc2ccc(C(=O)O)cc2)c2cc(Cl)ccc2n1C(c1ccccc1)c1ccccc1`, for which the viability worked out at 113.

Take `CCCC1OC2C[C@H]3[C@@H]4CCC5=CC(=O)C=C[C@]5(C)[C@H]4C(O)C[C@]3(C)[C@]2(C(=O)CO)O1` (stereo partly specified): the viability worked out at 121.

`CN1CCN(c2cccc(Nc3nc4c(-c5ccc([S+](C)(=O)[O-])cc5)cccn4n3)c2)CC1` yielded a viability of 125.

`O=C1CCC(N2C(=O)c3ccccc3C2=O)C(=O)N1` (stereo unspecified) registered a viability of 92.

Compound `C[N]1C=C(C=N1)C2=C3\C=N/NC(=O)C4=C3C(=CC(=C4)NC(=O)[C@H](N)C5CCCCC5)[NH]2` registered a viability of 100.

Regarding `CC(=O)N1CCN(c2ccc(OCc3nn(C)c(C)c3-c3cccc4c(CCCOc5cc(C)c(Cl)c(C)c5)c(C(=O)O)n(Cc5cccnc5)c34)cc2)CC1`, the viability was found to be 137.

`O=C1\C=C/C[C@@H]2[C@H]3CCCN4CCC[C@@H](CN12)[C@@H]34` showed a viability of 108.

As to `O=C(NC[C@H](O)CO)c1ccncc1Nc1ccc(I)cc1F`, the viability worked out at 72.6.

`Cc1nc2c([nH]1)-c1ccccc1N(C(=O)c1ccc(NC(=O)c3ccccc3-c3ccccc3)cc1)CC2` showed a viability of 126.

On to `COC1=CC=C(C=C1)C/2=C/OC3=C(C(=CC(=C3)O)O)C2=O`, for which the viability turned out to be 120.

`C[C@@H](Oc1cc(-n2cnc3ccc(CN4CCN(C)CC4)cc32)sc1C(N)=O)c1ccccc1C(F)(F)F` came in with a viability of 47.4.

In turn, `CC1(C)CNc2cc(NC(=O)c3cccnc3NCc3ccncc3)ccc21` gave a viability of 117.

Consider `CC1(N2CCC(n3c([C@@H]4CCCNC4)nc4ccccc43)CC2)CCCCCCC1`, for which the viability was 115.

In the case of `CN1CCN(CC1)C2=C3OCN(C)N4\C=C(C(O)=O)/C(=O)C(=C34)C=C2F`, the viability was determined as 123.

In turn, `COc1ccc(CC2NCCc3cc(OC)c(OC)cc32)cc1OC` (stereo unspecified) came in with a viability of 91.3.

`CN(C)CCN1C(=O)c2cccc3cc(N)cc(c23)C1=O`: the viability worked out at 62.2.

For the compound `O=C(C=CC#Cc1cccc(N[S+](=O)([O-])c2ccccc2)c1)NO`, the viability was found to be 108.

In turn, `CCN(CCO)CCCC(C)Nc1ccnc2cc(Cl)ccc12` (stereo unspecified) gave a viability of 116.

In turn, `C[N+](C)(C)CC(=O)O.[Cl-]` showed a viability of 113.

`CCCOc1ccc(C(=O)OCCN(CC)CC)cc1N` displayed a viability of 115.
